According to paper PMC9025555, “Chiral Recognition R- and RS- of New Antifungal: Complexation/Solubilization/Dissolution Thermodynamics and Permeability Assay” (Pharmaceutics, 2022):
Several values for one entry are separate records, joined by “and”; a condition that tells them apart may be missing. Equal values may be shown once.

Legend:
[1] = Complexation parameters with 2-HP-β-CD from phase-solubility diagrams; type: physicochemical; conditions: for increase of the complex stability as compared to L-173: acidic buffer; for Complexation efficiency (CE) / apparent stability constant (KCS): 2-HP-β-CD
Protocol: Thermodynamic functions of the complexation process were determined from the phase solubility diagrams following Higuchi and Connors. The linear AL-type phase-solubility diagrams evidenced the complexes of the first order in respect to cyclodextrin. The equilibrium of the complex formation with 1:1 stoichiometry in the cyclodextrin solution can be described in the following manner:(1) D+CD↔KCD⋅CD where D is the drug molecule, CD is the cyclodextrin molecule, and D·CD is drug/cyclodextrin complex. Respectively, the complexation constant ( KC ) can be expressed by the equation:(2) KC=[D⋅CD]/[D][CD] where [D·CD] is the complex concentration, [CD] is the cyclodextrin concentration, and [D] is the drug concentration. A plot of total solubility ( S2 expressed in molarity—M) in the presence of CD versus CD concentration ( CCD ) (a phase-solubility profile) gives a straight line with a slope equal to (KCS⋅S20/(1+KCS⋅S20)) and intercept equal to S20 from which the apparent stability constants ( KCS ) were estimated via Higuchi–Connors equation [15]:(3) KCS=slope/S20⋅(1−slope), where S20 is the intrinsic solubility of the drug at designated pH in the absence of CD and the slope is the corresponding slope of the phase-solubility diagram.
From CE, the (D:CD) ratio can be derived, which is useful for the estimation of the solubility improvement in CD solutions. Using the CE value, the molar ratio (Drug:CD) was determined:(5) Drug:CD=1:(1+1/CE)

in vitro = in vitro ADME
Protocol: Permeability coefficients of RS-186 and R-98 were measured through the PermeaPad barrier (PHABIOC, Germany, Espelkamp, www.permeapad.com, accessed on 20 May 2021) of an effective surface area of 0.785 cm^2 in a vertical type of Franz diffusion cell (PermeGear, Inc., Hellertown, PA, USA) with 7 mL volume. PermeaPad is a biomimetic membrane proposed by di Cagno and Bauer-Brandl for the fast screening of the permeability of the marketed drugs and drug-like compounds. In brief, the barrier was mounted between the donor and receptor chambers. The donor chamber was filled with a stock solution of the investigated substance in buffer solution at pH 2.0 or pH 7.4 and was stirred vigorously during the permeability experiment. The receptor compartment contained 1 mL of the respective fresh buffer. The system was thermostated at 310.15 ± 0.1 K. A probe of 0.5 mL was withdrawn every 30 min from the receptor chamber and replaced with an equal amount of the respective fresh buffer. The permeation process followed the reverse dialysis. The withdrawn samples were analyzed in 96-well UV black plate (Costar) via spectrophotometer (Spectramax 190; Molecular devices, Molecular Devices Corporation, California, CA, USA) at the appropriate wavelength. The permeation profiles were plotted as the amount of the permeated drug over the surface area ( dQ/A ) versus the time ( t ). The flux ( J ) was calculated as a slope of permeation profiles according to the equation:(6) J=dQ/A×dt
The apparent permeability coefficient ( Papp ) was calculated by normalizing the flux measured over the concentration of the drug in the donor compartment ( C0 ), as described by the equation:(7) Papp=J/Co
Each permeability experiment was repeated at least 3 times and the average value of Papp was determined.

## O=C1S/C(=C\c2ccc(Cl)cc2)C(=O)N1CC(O)CN1CCN(CC(O)(Cn2cncn2)c2ccc(F)cc2F)CC1 (stereo not drawn) [RS-186, (Z)-5-(4-chlorobenzylidene)-3-(3-(4-(2-(2,4-difluorophenyl)-2-hydroxy-3-(1H-1,2,4-triazol-1-yl)propyl)piperazin-1-yl)-2-hydroxypropyl)thiazolidine-2,4-dione]
[1]; 298.15 K
  increase of the complex stability as compared to L-173: ~2.8 fold
[1]; 315.15 K
  increase of the complex stability as compared to L-173: ~1.8 fold
[1]; pH 2.0, 298.15 K
  Complexation efficiency (CE): 35.4%
  apparent stability constant (KCS): 708.9 M⁻¹ and 708.9 ± 71.4 M⁻¹
[1]; pH 2.0, 303.15 K
  Complexation efficiency (CE): 36.9%
  apparent stability constant (KCS): 688.0 ± 60.3 M⁻¹
[1]; pH 2.0, 310.15 K
  Complexation efficiency (CE): 39.1%
  apparent stability constant (KCS): 646.7 ± 61.5 M⁻¹
[1]; pH 2.0, 313.15 K
  Complexation efficiency (CE): 43.2%
  apparent stability constant (KCS): 623.6 ± 60.0 M⁻¹
[1]; pH 2.0 stability constants (Table 2)
  ability for complex formation with CD, racemic compound as compared to R-isomer: 1.3 fold
[1]; pH 7.4
  CE decrease with the temperature growth: 17 fold
[1]; pH 7.4, 298.15 K
  Complexation efficiency (CE): 10.3%
[1]; pH 7.4, 303.15 K
  Complexation efficiency (CE): 4.6%
[1]; pH 7.4, 310.15 K
  Complexation efficiency (CE): 1.7%
[1]; pH 7.4, 313.15 K
  Complexation efficiency (CE): 0.6%
In vitro; buffer pH 7.4
  permeability decrease up to 0.03 M concentration of CD in donor solution: 8.89 fold
In vitro; in the presence of 0.01 M CD
  permeability classification (developers of PermeaPad): low
In vitro; pH 2.0
  permeability reduction up to 0.03 M concentration of CD in donor solution: 8.72 fold
In vitro; pH 2.0, CD 0.01087 M, 310.15 K
  Permeability Coefficient (Papp): (1.12 ± 0.09) × 10^−6 cm·s^−1
In vitro; pure buffers, classification of ref 18
  permeability classification (developers of PermeaPad): medium permeable
